The results in this text go back to patent US20230245725A1, “Means and Methods for the Prediction of Amyloid Core Sequences” (VIB VZW, priority 2020, published 2023).

Data set [1] in a line: Amyloid-forming properties of the peptide screen (overall call from Th-T, pFTAA, TEM). Type of data set: physicochemical. As to conditions: overall amyloid-forming call. The source says:
In the interest of improving the current description of the familiar amyloidogenic protein dataset, we selected and synthesised a subset of 96 peptides corresponding to strong aggregation prone regions identified in these proteins by Cordax. Apart of prediction strength, the peptide screen was also selectively constructed to ensure broad sequence variability and a wide distribution on the proteins of the dataset, with a preference for longer entries defined by inadequate previous characterisation. Peptide sequences were cross-checked and filtered to exclude overlapping sequences with previously identified amyloid regions and WALTZ-DB (see Table 2). The remaining selection of 96 peptides were synthesized using standard solid phase synthesis and their amyloid-forming properties were initially examined using Thioflavin-T (Th-T) or pFTAA binding, following rotating incubation for 5 days at room temperature. The binding assays are complementary, as Th-T and pFTAA are opposingly charged molecules, which increases the amyloid identification rate by overcoming cases of dye-specific failure to bind to amyloid surfaces based on charge repulsion. Under these conditions, 66 peptides successfully bind the specific dyes (FIGS. 3a & 3b) by forming fibrils with typical amyloid morphologies and properties that were verified using transmission electron microscopy (FIG. 3c) and Congo red staining for selected cases (FIG. 3d). As these dyes are known to yield false negatives, in particular for short peptides, all dye-negative peptides were further investigated using electron microscopy. During this scan, we recovered 19 additional sequences that were capable of forming sparse amyloid-like fibrils with shorter lengths (see FIG. 8). […]
(§1) Peptides derived from the Cordax validation set were synthesized using an Intavis Multipep RSi solid phase peptide synthesis robot. Peptide purity (>90%) was evaluated using RP-HPLC purification protocols and peptides were stored as ether precipitates (−20° C.). Peptide stocks were initially treated with 1,1,1,3,3,3-hexafluoro-isopropanol (HFIP) (Merck), then dissolved in traces of dimethyl sulfoxide (DMSO) (Merck) (<5%), filtered through 0.2 μm filters and finally in milli-Q water to reach a final concentration of 200 μM or up to 1 mM for dye-negative peptides. Dithiothreitol (DTT) (1 mM) was included in solutions of peptides spanning cysteine or methionine residues. All peptides were incubated at room temperature for a period of 5 days on a rotating wheel.
(§2) Amyloid aggregation was monitored using fluorescent spectroscopy binding assays. Th-T (Sigma) or pFTAA (Ebba Biotech AB) was added in half-area black 96-well microplates (Corning, USA) at a final concentration of 25 μM and 0.5 μM, respectively. Fluorescence intensity was measured in replicates (n=6) using a PolarStar Optima and a FluoStar Omega plate reader (BMG Labtech, Germany), equipped with an excitation filter at 440 nm and emission filters at 480 nm and 510 nm, respectively.
(§3) Peptide solutions were incubated for 5 days at room temperature in order to form mature amyloid-like fibrils. Suspensions (5 μL) of each peptide solution were added on 400-mesh carbon-coated copper grids (Agar Scientific Ltd., England), following a glow-discharging step of 30 s to improve sample adsorption. Grids were washed with milli-Q water and negatively stained using uranyl acetate (2% w/v in milli-Q water). Grids were examined with a JEM-1400 120 kV transmission electron microscope (JEOL, Japan), operated at […].

A short description of data set [2]: Thioflavin-T binding assay of synthetic peptides. The data set is classed as physicochemical. Conditions: 200 μM peptide, rotation 5 days, room temperature; Th-T 25 μM.
Text: (§4) In the interest of improving the current description of the familiar amyloidogenic protein dataset, we selected and synthesised a subset of 96 peptides corresponding to strong aggregation prone regions identified in these proteins by Cordax. Apart of prediction strength, the peptide screen was also selectively constructed to ensure broad sequence variability and a wide distribution on the proteins of the dataset, with a preference for longer entries defined by inadequate previous characterisation. Peptide sequences were cross-checked and filtered to exclude overlapping sequences with previously identified amyloid regions and WALTZ-DB (see Table 2). The remaining selection of 96 peptides were synthesized using standard solid phase synthesis and their amyloid-forming properties were initially examined using Thioflavin-T (Th-T) or pFTAA binding, following rotating incubation for 5 days at room temperature. The binding assays are complementary, as Th-T and pFTAA are opposingly charged molecules, which increases the amyloid identification rate by overcoming cases of dye-specific failure to bind to amyloid surfaces based on charge repulsion. Under these conditions, 66 peptides successfully bind the specific dyes (FIGS. 3a & 3b) by forming fibrils with typical amyloid morphologies and properties that were verified using transmission electron microscopy (FIG. 3c) and Congo red staining for selected cases (FIG. 3d). As these dyes are known to yield false negatives, in particular for short peptides, all dye-negative peptides were further investigated using electron microscopy. During this scan, we recovered 19 additional sequences that were capable of forming sparse amyloid-like fibrils with shorter lengths (see FIG. 8).
as §1, §2

Data set [3] can be described thus: pFTAA binding assay of synthetic peptides. Type of data set: physicochemical. Conditions: 200 μM peptide, rotation 5 days, room temperature; pFTAA 0.5 μM.
Text: as §4, §1, §2

A short description of data set [4]: Transmission electron microscopy of peptide fibrils. Type of data set: physicochemical. As to conditions: amyloid-like fibrils after 5 days at room temperature.
Text: as §4, §3

Data set [5] has as its target T1, Apo-AI (Homo sapiens, UniProt P02647).
T1 construct: Endpoint fluorescence analysis; made in house; host or cells: solid phase peptide synthesis (no expression host)
The data set is described as follows: Th-T kinetics and endpoint fluorescence analysis of ApoA-I APR variant peptides. The data set is classed as biochemical. Conditions: triplicate. As for the experimental part: The Th-T kinetics (see FIGS. 12A and 12B) and the endpoint fluorescence analysis (see FIG. 11) were performed in triplicate for the peptides depicted in Table 5.
The Th-T kinetics (see FIGS. 13A and 13B) and the endpoint fluorescence analysis (see FIG. 11) were performed in triplicate for the peptides depicted in Table 6.
as §2

In the case of YQLVLQ, the Amyloid result in data set [1] was “●”. Further, the “Th-T Binding” value in data set [2] is “●”. The “pFTAA Binding” value in data set [3] is reported as “●”. Moreover, the TEM result in data set [4] is reported as “●”.
With ASLTIL, the Amyloid entry in data set [1] is “●”. Also, in data set [2], the “Th-T Binding” value is reported as “●”. Besides, the “pFTAA Binding” value in data set [3] was “●”. The TEM entry in data set [4] is “●”.
As for VHIVKL, the Amyloid result in data set [1] is given as “●”. The “pFTAA Binding” value in data set [3] is on record as “●”. Further, the TEM result in data set [4] was “●”.
For YIILYN, the Amyloid entry in data set [1] was “●”. The “Th-T Binding” value in data set [2] is on record as “●”. Also, in data set [3], the “pFTAA Binding” value is reported as “●”. Besides, the TEM entry in data set [4] is given as “●”.
Regarding YDLHYW, the Amyloid entry in data set [1] was “●”. Besides, the “Th-T Binding” value in data set [2] is on record as “●”. Besides, the “pFTAA Binding” value in data set [3] is “●”. In data set [4], the TEM result is on record as “●”.
Turning to IFTVQL, the Amyloid result in data set [1] is on record as “●”. Besides, in data set [2], the “Th-T Binding” value was “●”. Besides, the “pFTAA Binding” value in data set [3] is listed as “●”. The TEM entry in data set [4] was “●”.
For AAYLWV, the Amyloid entry in data set [1] is on record as “●”. For the same substance, the “Th-T Binding” value in data set [2] is given as “●”. The “pFTAA Binding” value in data set [3] is recorded as “●”. Also, the TEM result in data set [4] was “●”.
As to VYVDVL, the Amyloid result in data set [1] is listed as “●”. Besides, the “Th-T Binding” value in data set [2] was “●”. Besides, in data set [3], the “pFTAA Binding” value was “●”. Besides, in data set [4], the TEM entry is “●”.
Consider “LWTVYV (Capping peptide) [SEQ ID NO: 175, candidate capping peptide variant of ApoA-I APR]”, for which the “capping peptide: prevent the aggregation of Apo-AI” value in data set [5] was “most performant capping peptides”.
In the case of AEIEIE, the Amyloid entry in data set [1] was “●”. Further, in data set [2], the “Th-T Binding” value is listed as “●”. Further, the “pFTAA Binding” value in data set [3] is listed as “●”. Besides, the TEM entry in data set [4] was “●”.
Take “LYTVYV (Capping peptide) [SEQ ID NO: 176, candidate capping peptide variant of ApoA-I APR]”: the “capping peptide: prevent the aggregation of Apo-AI” value in data set [5] is recorded as “most performant capping peptides”.
For the substance QVFVWV, the Amyloid result in data set [1] is given as “●”. Besides, the “Th-T Binding” value in data set [2] is reported as “●”. The “pFTAA Binding” value in data set [3] is recorded as “●”. Further, the TEM entry in data set [4] was “●”.
As for “LAIVYV (Aggregation inducer) [SEQ ID NO: 182, candidate aggregation inducing variant of ApoA-I APR]”, in data set [5], the “induce the aggregation of Apo-AI” value is “most performant peptides which can induce the aggregation of Apo-AI”.
As for NDAFVL, the Amyloid result in data set [1] is “●”. Further, the “Th-T Binding” value in data set [2] is “●”. The “pFTAA Binding” value in data set [3] is given as “●”. For the same substance, the TEM result in data set [4] is recorded as “●”.
As for “LLTVYV (Aggregation inducer) [SEQ ID NO: 178, candidate aggregation inducing variant of ApoA-I APR]”, in data set [5], the “induce the aggregation of Apo-AI” value is given as “most performant peptides which can induce the aggregation of Apo-AI”.
As to STVISY, in data set [1], the Amyloid result is recorded as “●”. Besides, the “Th-T Binding” value in data set [2] was “●”. Further, the “pFTAA Binding” value in data set [3] is “●”. Further, in data set [4], the TEM result is on record as “●”.
VNFSEF: the Amyloid entry in data set [1] is recorded as “●”. Further, the “Th-T Binding” value in data set [2] is reported as “●”. For the same substance, the “pFTAA Binding” value in data set [3] is “●”. Besides, the TEM result in data set [4] is on record as “●”.
For the substance FVIEEV, the Amyloid result in data set [1] was “●”. For the same substance, in data set [2], the “Th-T Binding” value is “●”. In data set [3], the “pFTAA Binding” value is “●”. The TEM result in data set [4] is recorded as “●”.
Turning to IIYNWQ, the Amyloid entry in data set [1] was “●”. The “Th-T Binding” value in data set [2] is given as “●”. Besides, the “pFTAA Binding” value in data set [3] is given as “●”. Also, in data set [4], the TEM result was “●”.
On to NFSIRY, for which the Amyloid entry in data set [1] is reported as “●”. Moreover, in data set [2], the “Th-T Binding” value was “●”. Besides, the “pFTAA Binding” value in data set [3] is “●”. In addition, the TEM result in data set [4] was “●”.
Turning to SQFIKL, the Amyloid entry in data set [1] is “●”. Besides, in data set [4], the TEM entry was “●”.
Consider IQVYSR, for which the Amyloid entry in data set [1] is reported as “●”. Moreover, the “Th-T Binding” value in data set [2] is “●”. Besides, the “pFTAA Binding” value in data set [3] is “●”. Moreover, the TEM entry in data set [4] is reported as “●”.
Take SNFLRA: the Amyloid entry in data set [1] is recorded as “●”. Besides, the TEM entry in data set [4] is listed as “●”.
Regarding LLFKDS, in data set [1], the Amyloid entry is “●”. In data set [4], the TEM entry is given as “●”.
Regarding ILLLFE, the Amyloid result in data set [1] is reported as “●”. Moreover, in data set [2], the “Th-T Binding” value was “●”. For the same substance, in data set [3], the “pFTAA Binding” value was “●”. Further, the TEM result in data set [4] was “●”.
